In patent publication US9617263B2, “Phenyl-triazolo-pyridine compounds” (Eli Lilly and Company, priority 2014, dated 2017):

Molecular target: T1, PPARγ (Homo sapiens, UniProt P37231)
T1 construct: expressed in transfected cells; host or cells: CV1 (African green monkey kidney)
T1 sequence (P37231 1-505): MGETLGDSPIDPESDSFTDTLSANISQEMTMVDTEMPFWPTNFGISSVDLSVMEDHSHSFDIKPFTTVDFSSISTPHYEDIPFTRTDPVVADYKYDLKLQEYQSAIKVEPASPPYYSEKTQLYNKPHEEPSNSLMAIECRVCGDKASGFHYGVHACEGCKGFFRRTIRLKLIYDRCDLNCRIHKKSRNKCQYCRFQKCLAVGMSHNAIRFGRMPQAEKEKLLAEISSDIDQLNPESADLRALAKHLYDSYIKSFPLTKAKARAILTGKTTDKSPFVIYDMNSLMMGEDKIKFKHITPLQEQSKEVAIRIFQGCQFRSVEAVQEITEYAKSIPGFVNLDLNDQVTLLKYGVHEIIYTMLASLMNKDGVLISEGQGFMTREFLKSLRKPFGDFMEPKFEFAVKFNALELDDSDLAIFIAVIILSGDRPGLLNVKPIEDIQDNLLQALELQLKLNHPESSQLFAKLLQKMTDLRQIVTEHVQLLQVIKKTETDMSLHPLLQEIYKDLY
T1 sequence (P19793 1-462 partner): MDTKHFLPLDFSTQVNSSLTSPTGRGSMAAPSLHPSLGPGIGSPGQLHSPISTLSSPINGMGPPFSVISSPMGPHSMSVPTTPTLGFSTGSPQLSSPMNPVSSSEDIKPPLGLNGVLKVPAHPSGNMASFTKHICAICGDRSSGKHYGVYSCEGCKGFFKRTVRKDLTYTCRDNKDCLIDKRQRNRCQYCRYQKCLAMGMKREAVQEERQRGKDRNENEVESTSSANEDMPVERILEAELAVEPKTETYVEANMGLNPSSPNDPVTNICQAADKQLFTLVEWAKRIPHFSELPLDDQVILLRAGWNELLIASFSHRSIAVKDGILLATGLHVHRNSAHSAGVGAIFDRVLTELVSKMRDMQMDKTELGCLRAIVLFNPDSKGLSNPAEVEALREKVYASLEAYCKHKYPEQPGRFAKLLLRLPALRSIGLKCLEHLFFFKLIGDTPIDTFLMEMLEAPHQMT
Assay: PPARγ reporter (CTF) functional assay in CV1 cells
Assay type: cell-based
Details: examined up to 10 M; versus 10 μM PPAR agonist reference compound
Procedure: Because GPR40 is known to be activated by ligands to PPARγ, exemplified compounds are examined in Gal4 PPARα, Gal4 PPARδ, and PPARγ reporter assays to determine the selectivity of exemplified compounds for PPAR receptors. CV1 cells, which are derived from the renal tissue of an African green monkey, are transfected with various receptor and reporter plasmids using Fugene. […] After 24 hours incubation with compounds, cells are lysed and luciferase activity is determined as a measure of receptor activation by luminescence. […] The maximum percent stimulation is determined versus maximum stimulation obtained with 10 μM of an appropriate PPAR agonist reference compound, 2-methyl-2-(4-{2-methyl-3-[2-(phenylcarbonyl)-4-(trifluoromethoxy)phenoxy]propoxy}phenoxy)propanoic acid. […] Efficacy was negative for PPARα, PPARδ, and PPARγ is detected with the compound of Example 1 when examined up to […] in the specific PPAR co-transfection (CTF) functional assays described above. […]

CC#C[C@@H](CC(=O)O)c1ccc(OCc2cc(-c3ccccc3C)cn3ncnc23)cc1 [Example 1, (S)-3-[4-(6-o-Tolyl-[1,2,4]triazolo[1,5-a]pyridin-8-ylmethoxy)-phenyl]-hex-4-ynoic acid]
Efficacy for PPARγ: negative (Efficacy of <20% is considered negative)
